target: pa-HemO (Pseudomonas aeruginosa, UniProt O69002); assay: fluorescence quenching assay; type: binding; settings: not given

Row | SMILES | Kd [µM]
1 | O=C(O)CCN1C(=O)/C(=C/c2cccc(Nc3ccccc3)c2)SC1=S [compound 21] | ~1
2 | O=C(O)CCN1C(=O)/C(=C\c2ccc(-c3cccc(O)c3)o2)SC1=S [compound 27] | ~1

same assay, conditions: ratio of KD values relative to inhibitor 2

Row | SMILES | fold improvement in potency/affinity compared to compound 2
3 | O=C1/C(=C/c2ccccn2)SC(=S)N1CCc1nnn[nH]1 [compound 3] | ~2 fold
4 | CC(C)c1ccc(/C=C2\SC(=S)N(CCC(=O)O)C2=O)cc1 [compound 13] | 5 fold
5 | O=C(O)CCN1C(=O)/C(=C/c2ccc(Cl)cc2)SC1=S [compound 11] | > 3 fold
6 | COc1cccc(/C=C2\SC(=S)N(CCC(=O)O)C2=O)c1 [compound 8] | ~ 2 fold
7 | COc1ccc(/C=C2\SC(=S)N(CCC(=O)O)C2=O)cc1 [compound 9] | ~ 2 fold

test system: P. aeruginosa; assay: not given; type: cell-based, Pseudomonas aeruginosa; settings: statement covers both MIC50 and biofilm formation assays

Row | SMILES | anti-bacterial effect (in words)
8 | O=C(O)CCN1C(=O)/C(=C/c2cccc(Nc3ccccc3)c2)SC1=S [compound 21] | poor anti-bacterial effects
9 | NCCN1C(=O)/C(=C/c2ccc(-c3ccccc3)cc2)SC1=S [compound 30] | did not have significant antibacterial activity
10 | O=C(O)CCN1C(=O)/C(=C\c2ccc(-c3ccccc3)cc2)SC1=S [compound 18] | poor anti-bacterial effects
11 | O=C(O)CCN1C(=O)/C(=C\c2ccc(-c3cccc(O)c3)o2)SC1=S [compound 27] | poor anti-bacterial effects
12 | CN(C)CCN1C(=O)/C(=C\c2ccc(-c3ccccc3)cc2)SC1=S [compound 31] | did not have significant antibacterial activity

From publication PMC5851869 (Bioorganic & medicinal chemistry letters, 2018)
